The target in the assay is CSF-1R (Homo sapiens, UniProt P07333). The experiment in a line: Peptide (non-phosphorylated) assay, fluorescence polarization competition immunoassay. Type of assay: biochemical. The note with it: 0.7 nM CSF-1R, 308 μM SYEGNSYTFIDPTQ peptide, 1 mM ATP, 80 min; mean of at least three determinations; read-out: c-fms Peptide IC50. The method, boiled down: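 Human CSF-1R kinase reaction started with ATP and run 80 min at room temperature, then stopped with EDTA. Phosphopeptide detected by fluorescence polarization competition using anti-phosphotyrosine antibody and PTK green tracer after 30 min. Controls used 4% DMSO, with EDTA added before reaction start for positive controls.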
Sequence of CSF-1R (P07333 20-972): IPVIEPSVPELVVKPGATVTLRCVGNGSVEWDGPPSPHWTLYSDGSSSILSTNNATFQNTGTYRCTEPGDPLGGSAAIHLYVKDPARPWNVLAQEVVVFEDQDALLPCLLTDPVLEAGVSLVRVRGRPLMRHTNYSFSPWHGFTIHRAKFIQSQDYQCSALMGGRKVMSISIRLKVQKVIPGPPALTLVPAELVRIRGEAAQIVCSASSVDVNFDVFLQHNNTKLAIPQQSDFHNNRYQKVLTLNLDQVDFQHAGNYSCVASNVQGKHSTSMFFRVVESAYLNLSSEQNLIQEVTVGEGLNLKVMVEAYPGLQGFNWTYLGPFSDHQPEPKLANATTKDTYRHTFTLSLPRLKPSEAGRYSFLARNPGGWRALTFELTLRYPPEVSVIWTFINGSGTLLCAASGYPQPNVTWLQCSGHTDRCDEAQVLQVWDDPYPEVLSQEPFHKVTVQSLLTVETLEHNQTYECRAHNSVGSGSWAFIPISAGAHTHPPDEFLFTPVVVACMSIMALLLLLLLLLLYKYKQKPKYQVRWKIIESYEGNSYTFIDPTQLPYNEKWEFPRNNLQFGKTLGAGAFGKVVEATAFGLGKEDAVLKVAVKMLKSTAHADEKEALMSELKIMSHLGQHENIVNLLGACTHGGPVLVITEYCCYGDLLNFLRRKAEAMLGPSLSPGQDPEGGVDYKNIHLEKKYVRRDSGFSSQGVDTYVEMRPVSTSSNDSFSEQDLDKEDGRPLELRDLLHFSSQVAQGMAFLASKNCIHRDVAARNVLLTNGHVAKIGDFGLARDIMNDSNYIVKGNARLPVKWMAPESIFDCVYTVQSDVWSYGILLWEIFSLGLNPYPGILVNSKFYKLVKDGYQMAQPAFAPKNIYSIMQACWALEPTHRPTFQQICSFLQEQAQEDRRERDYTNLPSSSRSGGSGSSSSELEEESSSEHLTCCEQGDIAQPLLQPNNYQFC

As for `CONC(=O)c1cn(-c2ccc3c(c2)CCC3)c2nc(Nc3ccc(CCc4n[nH]c(C)n4)cc3)ncc2c1=O` [Cpd 172, 8-indan-5-yl-2-{4-[2-(5-methyl-1H-[1,2,4]triazol-3-yl)-ethyl]-phenylamino}-5-oxo-5,8-dihydro-pyrido[2,3-d]pyrimidine-6-carboxylic acid methoxy-amide], the 50% inhibitory concentration (IC50) (in general, the concentration that inhibits the measured activity by half) is 2.3 nM. Then `CONC(=O)c1cn(-c2ccc3c(c2)CCC3)c2nc(Nc3ccc(Cc4ccncc4)cc3)ncc2c1=O` [Cpd 173, 8-indan-5-yl-5-oxo-2-(4-pyridin-4-ylmethyl-phenylamino)-5,8-dihydro-pyrido[2,3-d]pyrimidine-6-carboxylic acid methoxy-amide], with 0.77 nM; and `CONC(=O)c1cn(-c2ccc3c(c2)CCC3)c2nc(Nc3cccc(-n4cncn4)c3)ncc2c1=O` [Cpd 174, 8-indan-5-yl-5-oxo-2-(3-[1,2,4]triazol-1-yl-phenylamino)-5,8-dihydro-pyrido[2,3-d]pyrimidine-6-carboxylic acid methoxy-amide], with 2.1 nM. To `CONC(=O)c1cn(-c2ccc(OC(F)(F)F)cc2)c2nc(Nc3ccc(CCN4CCN(C)CC4)cc3)ncc2c1=O` [Cpd 175, 2-{4-[2-(4-methylpiperazin-1-yl)-ethyl]-phenylamino}-5-oxo-8-(4-trifluoromethoxy-phenyl)-5,8-dihydropyrido[2,3-d]pyrimidine-6-carboxylic acid methoxy-amide] belongs 1 nM; to `CONC(=O)c1cn(-c2ccc(OC(F)(F)F)cc2)c2nc(Nc3ccc(C4CCNCC4)cc3)ncc2c1=O` [Cpd 176, 5-oxo-2-(4-piperidin-4-yl-phenylamino)-8-(4-trifluoromethoxyphenyl)-5,8-dihydro-pyrido[2,3-d]pyrimidine-6-carboxylic acid methoxy-amide], 0.59 nM; to `CONC(=O)c1cn(-c2ccc(OC(F)(F)F)cc2)c2nc(Nc3ccc(C4CCN(S(N)(=O)=O)CC4)cc3)ncc2c1=O` [Cpd 177, 5-oxo-2-[4-(1-sulfamoyl-piperidin-4-yl)-phenylamino]-8-(4-trifluoromethoxyphenyl)-5,8-dihydropyrido[2,3-d]pyrimidine-6-carboxylic acid methoxy-amide], 6.6 nM. Then `CONC(=O)c1cn(-c2ccc3c(c2)CCC3)c2nc(Nc3ccc(C4CCN(S(N)(=O)=O)CC4)cc3)ncc2c1=O` [Cpd 178, 8-indan-5-yl-5-oxo-2-[4-(1-sulfamoyl-piperidin-4-yl)-phenylamino]-5,8-dihydro-pyrido[2,3-d]pyrimidine-6-carboxylic acid methoxy-amide], with 2.6 nM; and `CCc1ccc(-n2cc(C(=O)NOC)c(=O)c3cnc(Nc4ccc(C5CCN(S(N)(=O)=O)CC5)cc4)nc32)cc1` [Cpd 179, 8-(4-ethyl-phenyl)-5-oxo-2-[4-(1-sulfamoyl-piperidin-4-yl)-phenylamino]-5,8-dihydro-pyrido[2,3-d]pyrimidine-6-carboxylic acid methoxy-amide], with 1.8 nM.

For the molecule `CCONC(=O)c1cn(-c2ccc(CC)cc2)c2nc(Nc3ccc(C4CCN(CC)CC4)cc3)ncc2c1=O` [Cpd 181, 8-(4-ethyl-phenyl)-2-[4-(1-ethyl-piperidin-4-yl)-phenylamino]-5-oxo-5,8-dihydro-pyrido[2,3-d]pyrimidine-6-carboxylic acid ethoxy-amide], the IC50 was found to be 0.2 nM.

Take `CCc1ccc(-n2cc(C(=O)NOC(C)C)c(=O)c3cnc(Nc4ccc(C5CCN(CC)CC5)cc4)nc32)cc1` [Cpd 182, 8-(4-ethyl-phenyl)-2-[4-(1-ethyl-piperidin-4-yl)-phenylamino]-5-oxo-5,8-dihydro-pyrido[2,3-d]pyrimidine-6-carboxylic acid isopropoxy-amide]: the half-inhibitory concentration (IC50) was 0.7 nM. `CCONC(=O)c1cn(-c2ccc(CC)cc2)c2nc(Nc3ccc(C4CCN(CCO)CC4)cc3)ncc2c1=O` [Cpd 183, 8-(4-ethyl-phenyl)-2-{4-[1-(2-hydroxy-ethyl)-piperidin-4-yl]-phenylamino}-5-oxo-5,8-dihydro-pyrido[2,3-d]pyrimidine-6-carboxylic acid ethoxy-amide]: the IC50 amounted to 0.4 nM. Take `CCc1ccc(-n2cc(C(=O)NOC(C)C)c(=O)c3cnc(Nc4ccc(C5CCN(CCO)CC5)cc4)nc32)cc1` [Cpd 184, 8-(4-ethyl-phenyl)-2-{4-[1-(2-hydroxy-ethyl)-piperidin-4-yl]-phenylamino}-5-oxo-5,8-dihydro-pyrido[2,3-d]pyrimidine-6-carboxylic acid isopropoxy-amide]: the IC50 came to 0.9 nM. Then `CCc1ccc(-n2cc(C(=O)NOC)c(=O)c3cnc(Nc4ccc(C5CCN(CCCO)CC5)cc4)nc32)cc1` [Cpd 185, 8-(4-ethyl-phenyl)-2-{4-[1-(3-hydroxy-propyl)-piperidin-4-yl]-phenylamino}-5-oxo-5,8-dihydro-pyrido[2,3-d]pyrimidine-6-carboxylic acid methoxy-amide], with 0.6 nM; and `CCONC(=O)c1cn(-c2ccc(CC)cc2)c2nc(Nc3ccc(C4CCN(CCCO)CC4)cc3)ncc2c1=O` [Cpd 186, 8-(4-ethyl-phenyl)-2-{4-[1-(3-hydroxy-propyl)-piperidin-4-yl]-phenylamino}-5-oxo-5,8-dihydro-pyrido[2,3-d]pyrimidine-6-carboxylic acid ethoxy-amide], with 0.6 nM; and `CCc1ccc(-n2cc(C(=O)NOC(C)C)c(=O)c3cnc(Nc4ccc(C5CCN(CCCO)CC5)cc4)nc32)cc1` [Cpd 187, 8-(4-ethyl-phenyl)-2-{4-[1-(3-hydroxy-propyl)-piperidin-4-yl]-phenylamino}-5-oxo-5,8-dihydro-pyrido[2,3-d]pyrimidine-6-carboxylic acid isopropoxy-amide], with 0.7 nM. Take `CCc1ccc(-n2cc(C(=O)NOC)c(=O)c3cnc(Nc4ccc(C5CCN(CC(F)(F)F)CC5)cc4)nc32)cc1` [Cpd 188, 8-(4-ethyl-phenyl)-5-oxo-2-{4-[1-(2,2,2-trifluoro-ethyl)-piperidin-4-yl]-phenylamino}-5,8-dihydro-pyrido[2,3-d]pyrimidine-6-carboxylic acid methoxy-amide]: the IC50 is 4.1 nM.

Take `CCONC(=O)c1cn(-c2ccc(CC)cc2)c2nc(Nc3ccc(C4CCN(CC(F)(F)F)CC4)cc3)ncc2c1=O` [Cpd 189, 8-(4-ethyl-phenyl)-5-oxo-2-{4-[1-(2,2,2-trifluoro-ethyl)-piperidin-4-yl]-phenylamino}-5,8-dihydro-pyrido[2,3-d]pyrimidine-6-carboxylic acid ethoxy-amide]: the IC50 came out at 9.7 nM.

Turning to `CONC(=O)c1cn(-c2ccc3c(c2)CCC3)c2nc(Nc3ccc(CCc4ncn[nH]4)cc3)ncc2c1=O` [Cpd 190, 8-indan-5-yl-5-oxo-2-{4-[2-(1H-[1,2,4]triazol-3-yl)-ethyl]-phenylamino}-5,8-dihydro-pyrido[2,3-d]pyrimidine-6-carboxylic acid methoxy-amide], the half-inhibitory concentration (IC50) turned out to be 4.2 nM. To `CONC(=O)c1cn(-c2ccc(OC(F)(F)F)cc2)c2nc(Nc3ccc(CCc4n[nH]c(C)n4)cc3)ncc2c1=O` [Cpd 191, 2-{4-[2-(5-methyl-1H-[1,2,4]triazol-3-yl)-ethyl]-phenylamino}-5-oxo-8-(4-trifluoromethoxyphenyl)-5,8-dihydropyrido[2,3-d]pyrimidine-6-carboxylic acid methoxy-amide] belongs 5.6 nM.

The values are drawn from patent publication US20080114007A1 (priority 2006, published 2008).
